Tests used:
CYP2D6 = assay: Inhibition of CYP-mediated metabolism of 125I-ODV by selective inhibitor (paroxetine); type: in vitro ADME; settings: ddY, mouse, pooled mouse liver homogenate (MLH), pH 7.4, probe 125I-ODV; inhibitor 10 µM, compared with NADPH [+]
Experimental: (§1) The pooled MLH was stored at −80 °C.
(§2) For inhibition analysis of specific isozymes of CYP-mediated metabolism of ^125I-ODV, selective inhibitors of CYP isozymes employed in this study included α-naphthoflavone (an inhibitor of CYP1A1 and 1A2), sulfaphenazole (CYP2C9), fluconazole (CYP2C19), paroxetine (CYP2D6), 4-methylpyrazole (CYP2E1), and ketoconazole (CYP3A4). These selective inhibitors were used to elucidate the CYP responsible for the biotransformation of ^125I-ODV. Each inhibitor was dissolved at 10 µM (dimethyl sulfoxide 0.8% v/v final concentration). […] The sample was incubated at 37 °C for 15 min with gentle shaking. The reaction was stopped by adding 100 µL ethanol, and the sample was centrifuged for 5 min at 18,000 g.

CYP3A4 [1] = test system: CYP3A4; parameters: method as in PMID 26331791; settings: non-labeled ODV ref 11; cited from earlier work
CYP3A4 [2] = assay: Inhibition of CYP-mediated metabolism of 125I-ODV by selective inhibitor (ketoconazole); type: in vitro ADME; settings: ddY, mouse, pooled mouse liver homogenate (MLH), pH 7.4, probe 125I-ODV; inhibitor 10 µM, compared with NADPH [+]
Experimental: as §1, §2

Compound: Fc1ccc([C@@H]2CCNC[C@H]2COc2ccc3c(c2)OCO3)cc1 [paroxetine]
- inhibition at 15 min, 10 µM (CYP2D6): 79%

Compound: CN(C)CC(c1ccc(O)cc1)C1(O)CCCCC1 (stereo not drawn) [ODV, O-desmethylvenlafaxine]
- CYP isozyme metabolizing ODV (CYP3A4 [1]): metabolized only by CYP3A4

Compound: CC(=O)N1CCN(c2ccc(OCC3COC(Cn4ccnc4)(c4ccc(Cl)cc4Cl)O3)cc2)CC1 (stereo not drawn) [ketoconazole]
- inhibition at 15 min, 10 µM (CYP3A4 [2]): 63%
